Values joined by “and” are separate entries in the source; they are usually repeats but may differ in a detail not shown here. Equal values may be shown once.

For one assay, the system named is 16HBE14o- cells. Nature of the assay: Short-circuit current in 16HBE14o- cells (Test Example 2). Particulars: 1 μM, 1% DMSO. Type of assay: cell-based, Human. As to the method: (§1) 16HBE14o- cells, a Human airway cell line derived from a healthy individual, which contain ClC-2 and the Cystic Fibrosis Transmembrane Regulator, Cl channel (CFTR); and CFBE41o- cells, a Human airway cell line derived from cystic fibrosis patients, which contain functional form of ClC-2 and defective form of CFTR (ΔF508 CFTR) were used. Both cells were cultured in MEM supplemented with 10% FBS (Hyclone), […] 1-glutamine and penicillin/streptomycin in flasks coated with fibronectin/collagen/BSA. When desired, the cells were plated on 0.3 cm^2 collagen-coated permeable filters (Biocoat). After 24 hrs, the apical medium was removed so that the cells were grown in air-water interface. While they were grown in air-water interface, the basolateral side of the cells was fed with the medium and the medium was changed every other day. The cells were allowed to grow to confluence.
Short-circuit current measurements were used to evaluate Cl transport in polarized, confluent cultures of the cells grown in air-water interface. A plexiglass chamber for short-circuit current measurements in confluent cell monolayers grown on the 0.3 cm^2 permeable support filters was used (World Precision Instruments, Sarasota, Fla.). Electrical measurements were made with a 7402C voltage clamp device (Bioengineering Department, Iowa University). The temperature was held constant at 37° C. by circulating heated water through the water jacket of the chamber. The output of the amplifier was plotted on an analog chart recorder. Changes in short-circuit current (Δlsc) after addition of test compounds were normalized to filter area (0.3 cm^2) and reported as ΔIsc/cm^2.
Short-circuit current measurements in the 16HBE14o- and CFBE41o- cells were carried out as described by Lofling et al. (Am J Physiol, 277(4 Pt 1):L700-8, 1999, the cited reference is herein incorporated by reference). […] Both solutions were bubbled with CO2/O2 (5%/95%), which also served to help mix the solutions. In all cases, the basolateral membrane was permeabilized with 200 μg/ml nystatin. […]

Another assay relates to CFBE41o- cells. Briefly: Short-circuit current in CFBE41o- cells (Test Example 2). Particulars: 1 μM, 1% DMSO. It counts as cell-based, Human. As to the method:
as §1
Short-circuit current measurements were used to evaluate Cl transport in polarized, confluent cultures of the cells grown in air-water interface. A plexiglass chamber for short-circuit current measurements in confluent cell monolayers grown on the 0.3 cm^2 permeable support filters was used (World Precision Instruments, Sarasota, Fla.). Electrical measurements were made with a 7402C voltage clamp device (Bioengineering Department, Iowa University). […]

The next assay has as its system T84 cells. Nature of the assay: Short-circuit current in T84 cells (Test Example 5). Type of assay: cell-based, human. The conditions noted are these: 50 nM. As to the method:
T84 cells, a human intestinal cell line, derived form confluent monolayers with tight junctions were used. Said cell line has been widely used in studies of Cl^− transport using short-circuit current (Isc). These cells contain both CFTR and ClC-2.
T84 human intestinal epithelial cells were grown to confluence at pH 7.4 in 162-cm^2 flasks (Corning Costar, Mass.) with a 1:1 mixture of Dulbecco's modified Eagle's medium and Ham's F-12 nutrient mixture supplemented with 6% fetal bovine serum (FBS), 15 mM HEPES, 14.3 mM NaHCO^3, and antibiotics/antimycotic. Flasks were passaged weekly and fed every 3 days. Cell monolayers for experiments were grown to confluence on collagen-coated permeable support (Biocoat). Monolayers were fed every 3 days and used after stable transepithelia resistance was achieved, c.a. 7-14 days post-plating.
According to the same manner as described in Example 2, Short-circuit current measurements in T84 cells were carried out. Changes in short-circuit current (ΔIsc) were normalized to filter area (0.3 cm^2) and reported as ΔIsc/cm^2.
Compound 1 was used at a final concentration of 50 nM.

The subject of assay [1] is Chloride Ion Transport into Intestinal Fluid. Briefly: Chloride ion transport into intestinal fluid of rats (Test Example 6). Type of assay: in vivo, male Wistar rats. Particulars: for Chloride Ion Concentration in Intestinal Fluid, Mean ± S.E.: 30 minutes after administration. As to the method: Compound 1 (13,14-dihydro-15-keto-16,16-difluoro-prostaglandin E1) of 1, 10 or 100 μg/kg in the volume of 5 mL/kg was orally administered to male Wistar rats (six weeks old, weight:180-210 g) that had been fasted for at least 16 hours. The control group received the same volume of vehicle (distilled water containing 0.5% ethanol and 0.01% polysorbate 80). Thirty minutes after the administration, the animals were subjected to laparotomy under ether anesthesia. The top portion of the duodenum and the end portion of the ileum were ligated respectively, and the bowel was extirpated. The intestinal fluid of each animal was collected and centrifuged by 10,000×g for 5 minutes. Supernatant was collected, and the concentration of chloride ion in the supernatant of intestinal fluid was measured with a chloride counter (CL-7, Hiranuma Sangyo Co., Ltd.). Dunnett's test was used in the comparison of the control group and the groups receiving Compound 1 in each dose. P values less than 0.05 were considered to be statistically significant.

For assay [2], the system named is Chloride Ion Transport into Lacrimal Fluid. Briefly: Chloride ion transport into lacrimal fluid in rabbits (Test Example 8). It counts as in vivo, male white rabbits. As to the method:
Physiological saline, eye drops vehicle, or eye drops containing 0.0001% or 0.001% of Compound 1 was instilled to male white rabbits in the volume of 30 μL/eye. […] The collected lacrimal fluid was diluted five fold with distilled water, and the concentration of chloride ions was measured with a chloride counter (CL-7, Hiranuma Sangyo Co. Ltd.). Student's t-test and Wilcoxon's test were used in the comparison of the control group and the groups receiving Compound 1 in each dose. P values less than 0.05 were considered to be statistically significant.

For assay [3], the system named is Chloride Ion Transport into Bile. Nature of the assay: Chloride ion transport into bile in rats (Test Example 7). It counts as in vivo, male Wistar rats. As to the method: Compound 2 (13,14-dihydro-15-keto-16,16- difluoro-18(S)-methyl-prostaglandin E1) of 100 μg/kg was orally administered to male Wistar rats (six weeks old, weight:180-210 g) three times a day for seven days. The control group (n=7) received the same volume of vehicle (distilled water containing 0.01% polysorbate 80 and 0.5% ethanol). In the following morning of the final administration day (about 17 hours after the final administration), a polyethylene catheter (PE10, Becton Dickinson and Company) was inserted in the rats' choledoch under ether anesthesia. The rats were placed into Borrmann's cages and were left for 1 hour to awake from anesthesia. Bile discharged in one hour, from one to two hours after the insertion of the catheter, was collected and the concentration of chloride ion in the bile was measured with a chloride counter (CL-7, Hiranuma Sangyo Co., Ltd.). Student's t-test was used in the comparison of the control group and the group receiving Compound 2. P values less than 0.05 were considered to be statistically significant.

For `CCCCC(F)(F)[C@@]1(O)CC[C@H]2[C@@H](CC(=O)[C@@H]2CCCCCCC(=O)O)O1` [Compound 1, (−)-7-[(2R,4aR,5R,7aR)-2-(1,1-difluoropentyl)-2-hydroxy-6-oxoperhydrocyclopenta[b]pyran-5-yl]heptanoic acid], the “Short-Circuit Current (change)” value in the assay on 16HBE14o- cells was 9.56±0.095 μA/cm^2 and 9.56 ± 0.95 μA/cm^2; in the assay on CFBE41o- cells it was 5.0±0.04 μA/cm^2 and 5.0 ± 0.4 μA/cm^2. Further, the “Effect on Cl− transport in T84 cells (in words)” value in the assay with T84 cells is “activated Cl^− transport”. Further, the “Changes in short-circuit currents (Δlsc)” value in the assay with T84 cells (T84 cells) is reported as 56.5 μA/cm^2. Moreover, the “Chloride Ion Concentration in Intestinal Fluid, Mean ± S.E.” value in assay [1] (1 μg/kg P.O.) is 82.2 ± 7.0 mEq/L; in assay [1] (10 μg/kg P.O.), 110.1 ± 5.6 mEq/L; in assay [1] (100 μg/kg P.O.), 126.6 ± 2.4 mEq/L. Also, the “Effect on concentration of chloride ions in the bowel (in words)” value in assay [1] (1, 10 and 100 μg/kg P.O.) is “increased the concentration of chloride ions in the bowel in a dose-dependant manner”. For the same compound, the “Effect on concentration of chloride ions in the lacrimal fluid (in words)” value in assay [2] (0.0001% and 0.001% eye drops, compared with control group) was “increased the concentration of chloride ions in the lacrimal fluid in a dose-dependant manner”. Also, the “Chloride Ion Concentration in lacrimal fluid, Mean ± S.E.” value in assay [2] (0.0001% eye drops, 30 μL/eye, Pre (0 hour)) worked out at 136.7 ± 3.6 mEq/L; in assay [2] (0.0001% eye drops, 2 hr after instillation), 123.4 ± 5.2 mEq/L; in assay [2] (0.0001% eye drops, 4 hr after instillation) it was 136.8 ± 2.3 mEq/L; in assay [2] (0.0001% eye drops, 6 hr after instillation), 136.8 ± 2.0 mEq/L; in assay [2] (0.0001% eye drops, 8 hr after instillation), 140.8 ± 2.8 mEq/L; in assay [2] (0.001% eye drops, 30 μL/eye, Pre (0 hour)) it was 135.4 ± 4.0 mEq/L. For the same compound, the “Chloride Ion Concentration in lacrimal fluid, Mean ± S.E.” value was 152.9 ± 7.7^[##] mEq/L in assay [2] (0.001% eye drops, 2 hr after instillation); 151.4 ± 2.9 mEq/L in assay [2] (0.001% eye drops, 4 hr after instillation); 138.9 ± 3.3 mEq/L in assay [2] (0.001% eye drops, 6 hr after instillation); 138.8 ± 1.6 mEq/L in assay [2] (0.001% eye drops, 8 hr after instillation).

In the case of `CC[C@H](C)CC(F)(F)C(=O)CC[C@H]1[C@H](O)CC(=O)[C@@H]1CCCCCCC(=O)O` [Compound 2, 13,14-dihydro-15-keto-16,16-difluoro-18(S)-Methyl-PGE1], the “Short-Circuit Current (change)” value in the assay with 16HBE14o- cells was found to be 11.6±1.3 μA/cm^2; with 16HBE14o- cells (listed as compound 2), 11.6 ± 1.3 μA/cm^2. Also, the “Effect on concentration of chloride ions in the bile (in words)” value in assay [3] (100 μg/kg P.O. t.i.d. 7 days, compared with control group) was “increased significantly”. For the same compound, the “Chloride Ion Concentration in Bile, Mean ± S.E.” value in assay [3] (100 μg/kg P.O., t.i.d. for 7 days, about 17 hours after final administration) came to 98.4 ± 1.8 mEq/L.

Values taken from US7253295B2, “Chloride channel opener” (Sucampo AG, priority 2001, dated 2007).
